Laboratory results from patent US20240270762A1, “PENICILLIN-BINDING PROTEIN INHIBITORS” (priority 2021, published 2024).
In brackets after ≈: the same amount, converted by molar mass.

Key:
[1] = target: T1, PBP3 from Acinetobacter baumannii (ATCC 19606) (Acinetobacter baumannii, UniProt A0ABX6CK25); assay: Bocillin-FL fluorescence polarization competition binding, A. baumannii PBP3; conditions: fluorescence polarization competition binding assay using Bocillin-FL; read-out: A. baumannii PBP3 Potency
T1 sequence (A0ABX6CK25 64-610): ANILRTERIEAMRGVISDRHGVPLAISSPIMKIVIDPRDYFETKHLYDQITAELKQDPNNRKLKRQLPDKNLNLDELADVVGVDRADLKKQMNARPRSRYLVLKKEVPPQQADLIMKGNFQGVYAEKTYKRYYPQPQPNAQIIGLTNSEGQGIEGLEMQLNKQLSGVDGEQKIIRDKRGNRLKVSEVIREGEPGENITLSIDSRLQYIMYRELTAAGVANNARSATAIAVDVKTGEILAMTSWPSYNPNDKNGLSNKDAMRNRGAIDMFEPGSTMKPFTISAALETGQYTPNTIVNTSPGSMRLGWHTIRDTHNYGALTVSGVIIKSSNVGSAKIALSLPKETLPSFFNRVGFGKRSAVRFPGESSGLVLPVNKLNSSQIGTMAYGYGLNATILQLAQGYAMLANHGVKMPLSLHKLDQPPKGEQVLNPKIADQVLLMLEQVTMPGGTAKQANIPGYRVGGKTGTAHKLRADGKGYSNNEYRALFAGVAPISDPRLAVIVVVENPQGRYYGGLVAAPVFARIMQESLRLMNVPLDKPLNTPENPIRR
In short: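 Purified PBP was preincubated with inhibitor (E. coli PBP3 1.5 μM, 30 min; P. aeruginosa PBP3 0.75 μM, A. baumannii PBP3 0.2 μM and PBP1a 1 μM, 15 min), then Bocillin-FL (0.1 μM; 0.05 μM for PBP1a) added and FP read up to 60 min. EC50 = 50% loss of bound probe.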

[2] = system: P. aeruginosa ATCC 35151; assay: microbe, parasite or virus in culture; type: cell-based; conditions: Pseudomonas aeruginosa, ATCC35151, read-out: Minimum inhibitory concentration, P. aeruginosa ATCC 35151
[3] = system: P. aeruginosa CDC-0095; assay: microbe, parasite or virus in culture; type: cell-based; conditions: Pseudomonas aeruginosa, CDC0095, read-out: Minimum inhibitory concentration, P. aeruginosa CDC-0095
[4] = system: A. baumannii 1258916; assay: microbe, parasite or virus in culture; type: cell-based, Acinetobacter baumannii; conditions: Acinetobacter baumannii, 1258916, read-out: MIC, A. baumannii 1258916
[5] = system: A. baumannii CDC-0045; assay: microbe, parasite or virus in culture; type: cell-based; conditions: Acinetobacter baumannii, CDC0045, read-out: MIC, A. baumannii CDC-0045
[6] = system: B. thailandensis ATCC 700388; assay: microbe, parasite or virus in culture; type: cell-based; conditions: Burkholderia thailandensis, ATCC700388, read-out: Minimum inhibitory concentration (MIC), B. thailandensis ATCC 700388
[7] = system: N. gonorrhoeae MS11; assay: Liquid broth MIC in Fastidious broth; conditions: Neisseria gonorrhoeae, MS11, read-out: Minimum Inhibitory Concentration (MIC), N. gonorrhoeae MS11
[8] = system: N. gonorrhoeae WHO L; assay: Liquid broth MIC in Fastidious broth; conditions: Neisseria gonorrhoeae, read-out: Minimum Inhibitory Concentration (MIC), N. gonorrhoeae WHO L
[9] = system: N. gonorrhoeae WHO Q; assay: Liquid broth MIC in Fastidious broth; conditions: Neisseria gonorrhoeae, read-out: Minimum Inhibitory Concentration (MIC), N. gonorrhoeae WHO Q
[10] = system: N. gonorrhoeae CDC-0197; assay: Liquid broth MIC in Fastidious broth; conditions: Neisseria gonorrhoeae, CDC0197, read-out: Minimum Inhibitory Concentration (MIC), N. gonorrhoeae CDC-0197

Q: Which results are given for `O=C(NCCCN1CCN(C(=O)NC(C(=O)N[C@H]2Cc3ccc(F)c(C(=O)O)c3OB2O)c2cc(F)c(O)c(O)c2Cl)C(=O)C1=O)Nc1ccc(O)cc1` (stereo partly drawn) [Example 227, (3R)-3-(2-(2-chloro-5-fluoro-3,4-dihydroxyphenyl)-2-(4-(3-(3-(4-hydroxyphenyl)ureido)propyl)-2,3-dioxopiperazine-1-carboxamido)acetamido)-7-fluoro-2-hydroxy-3,4-dihydro-2H-benzo[e][1,2]oxaborinine-8-carboxylic acid]?
A: IC50 [1]: < 10 µM; MIC [2]: < 1 µg/mL; MIC [3]: < 1 µg/mL; MIC [4]: < 1 µg/mL; MIC [5]: < 1 µg/mL; MIC [6]: < 1 µg/mL; MIC [7]: 16 to 32 µg/mL (≈ 20.6 to 41.3 µM); MIC [8]: > 64 µg/mL; MIC [9]: > 64 µg/mL; MIC [10]: > 64 µg/mL

Q: What does the source list for `O=C(NCCCN1CCN(C(=O)NC(C(=O)N[C@H]2Cc3ccc(F)c(C(=O)O)c3OB2O)c2cc(F)c(O)c(O)c2Cl)C(=O)C1=O)Nc1ccncc1` (stereo partly drawn) [Example 228, (3R)-3-(2-(2-chloro-5-fluoro-3,4-dihydroxyphenyl)-2-(2,3-dioxo-4-(3-(3-(pyridin-4-yl)ureido)propyl)piperazine-1-carboxamido)acetamido)-7-fluoro-2-hydroxy-3,4-dihydro-2H-benzo[e][1,2]oxaborinine-8-carboxylic acid]?
A: IC50 [1]: < 10 µM; MIC [2]: < 1 µg/mL; MIC [3]: 2 to 4 µg/mL (≈ 2.63 to 5.26 µM); MIC [4]: < 1 µg/mL; MIC [5]: < 1 µg/mL; MIC [6]: < 1 µg/mL; MIC [7]: > 64 µg/mL; MIC [8]: > 64 µg/mL; MIC [9]: > 64 µg/mL; MIC [10]: > 64 µg/mL

Q: `O=C(O)c1c(F)ccc2c1OB(O)[C@@H](NC(=O)[C@H](NC(=O)N1CCN(CCNC(=O)[C@@H]3CCCN3)C(=O)C1=O)c1cc(F)c(O)c(O)c1Cl)C2` [Example 229, (R)-3-((R)-2-(2-chloro-5-fluoro-3,4-dihydroxyphenyl)-2-(2,3-dioxo-4-(2-((S)-pyrrolidine-2-carboxamido)ethyl)piperazine-1-carboxamido)acetamido)-7-fluoro-2-hydroxy-3,4-dihydro-2H-benzo[e][1,2]oxaborinine-8-carboxylic acid] was tested. Which IC50 [1] did it give?
A: Its IC50 is < 10 µM.

Q: And the MIC [2]?
A: The MIC was < 1 µg/mL.

Q: And the MIC [3]?
A: Its MIC is < 1 µg/mL.

Q: And the MIC [4]?
A: Its MIC is 2 to 4 µg/mL (≈ 2.77 to 5.53 µM).

Q: And the MIC [5]?
A: The MIC was < 1 µg/mL.

Q: And the MIC [6]?
A: Its MIC is < 1 µg/mL.

Q: And the MIC [7]?
A: Its MIC is 16 to 32 µg/mL (≈ 22.1 to 44.3 µM).

Q: And the MIC [8]?
A: The MIC was > 64 µg/mL.

Q: What about the MIC [9] of the same compound?
A: Its MIC is 16 to 32 µg/mL (≈ 22.1 to 44.3 µM).

Q: And the MIC [10]?
A: Its MIC is 16 to 32 µg/mL (≈ 22.1 to 44.3 µM).

Q: What does the source list for `O=C(CN1CCN(C(=O)NC(C(=O)N[C@H]2Cc3ccc(F)c(C(=O)O)c3OB2O)c2cc(F)c(O)c(O)c2Cl)C(=O)C1=O)Nc1ccc(O)cc1` (stereo partly drawn) [Example 230, (3R)-3-(2-(2-chloro-5-fluoro-3,4-dihydroxyphenyl)-2-(4-(2-((4-hydroxyphenyl)amino)-2-oxoethyl)-2,3-dioxopiperazine-1-carboxamido)acetamido)-7-fluoro-2-hydroxy-3,4-dihydro-2H-benzo[e][1,2]oxaborinine-8-carboxylic acid]?
A: IC50 [1]: < 10 µM; MIC [2]: < 1 µg/mL; MIC [3]: < 1 µg/mL; MIC [4]: 2 to 4 µg/mL (≈ 2.73 to 5.47 µM); MIC [5]: < 1 µg/mL; MIC [6]: 2 to 4 µg/mL (≈ 2.73 to 5.47 µM); MIC [7]: 4 to 8 µg/mL (≈ 5.47 to 10.9 µM); MIC [8]: 16 to 32 µg/mL (≈ 21.9 to 43.7 µM); MIC [9]: 16 to 32 µg/mL (≈ 21.9 to 43.7 µM); MIC [10]: 16 to 32 µg/mL (≈ 21.9 to 43.7 µM)

Q: Which IC50 [1] does the source give for `O=C(CN1CCN(C(=O)NC(C(=O)N[C@H]2Cc3ccc(F)c(C(=O)O)c3OB2O)c2cc(F)c(O)c(O)c2Cl)C(=O)C1=O)Nc1cccc(O)c1` (stereo partly drawn) [Example 231, (3R)-3-(2-(2-chloro-5-fluoro-3,4-dihydroxyphenyl)-2-(4-(2-((3-hydroxyphenyl)amino)-2-oxoethyl)-2,3-dioxopiperazine-1-carboxamido)acetamido)-7-fluoro-2-hydroxy-3,4-dihydro-2H-benzo[e][1,2]oxaborinine-8-carboxylic acid] here?
A: The IC50 was < 10 µM.

Q: And the MIC [2]?
A: Its MIC is < 1 µg/mL.

Q: And the MIC [3]?
A: The MIC was 2 to 4 µg/mL (≈ 2.73 to 5.47 µM).

Q: And the MIC [4]?
A: The MIC was 2 to 4 µg/mL (≈ 2.73 to 5.47 µM).

Q: What about the MIC [5] of the same compound?
A: Its MIC is 2 to 4 µg/mL (≈ 2.73 to 5.47 µM).

Q: And the MIC [6]?
A: The MIC was 2 to 4 µg/mL (≈ 2.73 to 5.47 µM).

Q: What about the MIC [7] of the same compound?
A: The MIC was 16 to 32 µg/mL (≈ 21.9 to 43.7 µM).

Q: And the MIC [8]?
A: The MIC was > 64 µg/mL.

Q: And the MIC [9]?
A: Its MIC is 16 to 32 µg/mL (≈ 21.9 to 43.7 µM).

Q: What about the MIC [10] of the same compound?
A: Its MIC is 16 to 32 µg/mL (≈ 21.9 to 43.7 µM).
